Test results published in US20240277658A1, “NLRP3 ACTIVATORS FOR USE IN THE TREATMENT OF INFECTIOUS DISEASES OR CANCER BY ACTIVATING NLRP3 INFLAMMASOME” (ALBERT-LUDWIGS-UNIVERSITÄT FREIBURG, priority 2020, published 2024).
Several values for one entry are separate records, joined by “and”; a condition that tells them apart may be missing. Identical values can stand only once. Like-named read-outs stand apart in the source and are kept apart here.

Legend:
BMDCs = assay: LDH release (lytic cell death, pyroptosis) from LPS-primed BMDCs; type: cell-based, mouse; conditions: for Average (% positive control): LDH release; for cytotoxicity at 25 µM / cytotoxicity at 50 µM / cytotoxicity at 100 µM / cytotoxicity at 20 µM / cytotoxicity at 40 µM / cytotoxicity at 80 µM: Mus musculus, BMDC; for cytotoxicity at 25 µM / cytotoxicity at 50 µM: EN11 series table
Method: (§1) This was tested in cell culture in several different in vitro assays classically used to investigate inflammasome activation. These include measuring inflammasome-dependent lytic cell death (pyroptosis) by detecting release of the cytosolic enzyme lactate dehydrogenase (LDH) using a commercial colorimetric assay and release of proinflammatory cytokines like IL-1β by enzyme-linked immunosorbent assay (ELISA), analyzing cleavage and activation of caspase-1 and IL-1β by immunoblotting and immunofluorescence imaging of ASC speck formation. Lytic cell death was determined via LDH release. Assay results for compounds are illustrated in the Tables below, wherein the concentration of the compounds tested had been 50 μM or as indicated in the table, and the concentration of the known activators has been tested with 5 μM of nigericin, 100 μM of each R837 and CL097. For classification of the activity of a given molecule, release of IL-1β was quantified as % of IL-1% of a respective control activator used for the experiment (highlighted in tables with bold letters). The compounds listes in Table 1 were classified into 4 groups depending on their ability to induce the NLRP3 inflammasome activation, assessed by % IL-1β release as compared to the positive control.
(§2) Mouse bone marrow-derived dendritic cells (BMDCs) were isolated from femurs and tibias previously described (Gross, Olaf, 2012, “Measuring the inflammasome”, Methods in molecular biology, Clifton, N.J., 844, pp. 199-222.). In brief, tibias and femurs were carefully removed and put to sterile 70% ethanol for 1 minute. Using a 22-G needle attached to a 20 ml-syringe filled with sterile flushing medium, the bone marrow was pressed through the mesh of a […] cell strainer. The cells were spun down by centrifugation at 400×g, 4° C. for 5 minutes and red blood cells lysed by resuspension and incubation for 5 minutes at room temperature in RBC lysis buffer. 9 ml of flushing medium were added and cells were again spun down by centrifugation at 400×g, 4° C. for 5 minutes. Cells were then resuspended in BMDC medium (RPMI, 10% fetal bovine serum, 1% penicillin-streptomycin100 U/ml, 20 ng/ml recombinant murine GM-CSF), counted and plated at a density of 0.5×10^6 cells ml^−1 in 10 ml medium and incubated at 37° C., 5% CO2 in a humidified incubator. After 2 days, 10 ml of fresh medium were added to the cells and after 4 days, the medium was fully exchanged to 20 ml of fresh medium. The cells were allowed to differentiate for 6 to 8 days before usage.
(§3) For canonical inflammasome activation BMDCs after 7-9 days of differentiation were harvested and counted with a Neubauer Chamber (Hecht Assistant) and the concentration was set to 1 Mio cells ml^−1. 100 μl cell suspension per well were seeded in 96-well plates. The cells were primed with 50 ng ml^−1 E. coli K12 ultra-pure LPS for 3 hours and subsequently treated with canonical inflammasome activators or experimental compounds for 3 hours if not indicated differently (incubation time FIG. 4D, 5, 7, 8, 11, 13-18: 3 h, FIG. 12: 4 h). Concentrations of the stimuli were as follows if not indicated differently: 5 μM nigericin, 100 μM imiquimod (also known as R837), 100 μM CL097, 100 μM R848, […] poly(dA:dT), 300 μg ml^−1 MSU. If an inhibitor was used before stimuli treatment, the inhibitor was added after 2.5 hours of priming and it was incubated for 30 minutes before inflammasome activation. Inhibitors were used as follows: 3 μM MCC950, 45 mM KCl, 30 μM ebselen (2-Phenyl-1,2-benzoselenazol-3-one), 5 μM cytochalasin D (see FIGS. 8, 11, 12 and 17).
(§4) All inflammasome stimulations were performed in three technical replicates for each condition. […]

NLRP3 inflammasome = molecular target: T1, NLRP3 inflammasome (Mus musculus, UniProt Q8R4B8); assay: IL-1β release from LPS-primed BMDCs (ELISA) as readout of NLRP3 inflammasome activation; type: cell-based; conditions: for IL-1β: individual replicate values; for Average (% positive control): IL-1β
T1 construct: endogenous in cells; host or cells: primary mouse bone marrow-derived dendritic cells (BMDCs), LPS-primed
T1 sequence (Q8R4B8 whole entry): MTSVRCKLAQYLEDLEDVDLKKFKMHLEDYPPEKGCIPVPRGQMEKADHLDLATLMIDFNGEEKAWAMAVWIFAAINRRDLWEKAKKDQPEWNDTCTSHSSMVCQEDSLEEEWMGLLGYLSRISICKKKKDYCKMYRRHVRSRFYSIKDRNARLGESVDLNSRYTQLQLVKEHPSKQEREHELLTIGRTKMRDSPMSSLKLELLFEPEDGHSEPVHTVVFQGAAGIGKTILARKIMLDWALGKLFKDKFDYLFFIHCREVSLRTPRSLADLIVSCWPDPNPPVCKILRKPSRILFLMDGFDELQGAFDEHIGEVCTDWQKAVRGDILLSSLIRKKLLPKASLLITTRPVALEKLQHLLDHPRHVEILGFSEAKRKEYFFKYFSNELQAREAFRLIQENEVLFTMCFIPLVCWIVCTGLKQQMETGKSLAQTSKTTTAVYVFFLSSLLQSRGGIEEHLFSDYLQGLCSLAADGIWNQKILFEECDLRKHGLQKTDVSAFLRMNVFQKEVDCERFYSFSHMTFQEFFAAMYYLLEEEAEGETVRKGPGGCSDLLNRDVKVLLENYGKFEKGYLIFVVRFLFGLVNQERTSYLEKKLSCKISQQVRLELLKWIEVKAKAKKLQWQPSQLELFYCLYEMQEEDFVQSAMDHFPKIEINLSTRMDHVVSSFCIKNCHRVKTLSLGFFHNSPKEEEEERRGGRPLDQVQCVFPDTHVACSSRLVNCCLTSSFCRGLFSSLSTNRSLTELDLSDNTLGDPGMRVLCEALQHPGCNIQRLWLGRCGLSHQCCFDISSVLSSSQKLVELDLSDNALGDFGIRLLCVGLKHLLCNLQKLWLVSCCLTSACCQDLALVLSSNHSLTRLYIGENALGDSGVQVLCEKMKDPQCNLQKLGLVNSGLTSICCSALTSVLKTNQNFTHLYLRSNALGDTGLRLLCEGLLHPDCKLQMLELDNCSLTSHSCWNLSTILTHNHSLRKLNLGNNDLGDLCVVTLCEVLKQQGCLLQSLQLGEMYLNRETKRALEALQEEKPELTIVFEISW
Method: as §1, §2, §3, §4

[1] = 25 μM, positive control EN22 25 μM
[2] = 50 μM, positive control EN22 25 μM
[3] = 100 μM, positive control EN22 25 μM
[4] = 25 μM, read-out: Average LDH release (% of max.)
[5] = 25 μM, individual replicate values, read-out: LDH release (% of max.)
[6] = 50 μM, read-out: Average LDH release (% of max.)
[7] = 50 μM, individual replicate values, read-out: LDH release (% of max.)
[8] = 100 μM, individual replicate values, read-out: LDH release (% of max.)
[9] = 100 μM, read-out: Average LDH release (% of max.)

## O=C(Nc1ccc2ncccc2c1)NC1CCCCC1 [EN11-02, 1-cyclohexyl-3-(quin-olin-6-yl)urea]
BMDCs; [1]
  Average (% positive control): 20.897 % positive control
BMDCs; [2]
  Average (% positive control): 21.105 % positive control
BMDCs; [3]
  Average (% positive control): 19.808 % positive control
BMDCs; [4]
  cytotoxicity at 25 µM: 10.6%
BMDCs; [5]
  cytotoxicity at 25 µM: 10.8%
BMDCs; [6]
  cytotoxicity at 50 µM: 10.7%
BMDCs; [7]
  cytotoxicity at 50 µM: 10.4%
BMDCs; [8]
  cytotoxicity at 100 µM: 10.1%
BMDCs; [9]
  cytotoxicity at 100 µM: 10.1%
NLRP3 inflammasome; 25 μM, EN11 series table
  Average IL-1β: 0.015 ng/mL
  IL-1β: 0.015 ng/mL
NLRP3 inflammasome; 50 μM, EN11 series table
  Average IL-1β: 0.042 ng/mL
  IL-1β: 0.040 ng/mL and 0.050 ng/mL and 0.036 ng/mL
NLRP3 inflammasome; 100 μM
  Average IL-1β: 0.050 ng/mL
  IL-1β: 0.053 ng/mL and 0.052 ng/mL and 0.046 ng/mL
NLRP3 inflammasome; [1]
  Average (% positive control): 1.019 % positive control
NLRP3 inflammasome; [2]
  Average (% positive control): 2.832 % positive control
NLRP3 inflammasome; [3]
  Average (% positive control): 3.424 % positive control

## O=C(NCCc1ccccc1)Nc1ccc2ncccc2c1 [EN11-07, 1-(2-phenylethyl)-3-(quinolin-6-yl)urea]
BMDCs; [1]
  Average (% positive control): 27.283 % positive control
BMDCs; [2]
  Average (% positive control): 28.451 % positive control
BMDCs; [3]
  Average (% positive control): 26.529 % positive control
BMDCs; [4]
  cytotoxicity at 25 µM: 13.9%
BMDCs; [5]
  cytotoxicity at 25 µM: 13.4%
BMDCs; [6]
  cytotoxicity at 50 µM: 14.5%
BMDCs; [7]
  cytotoxicity at 50 µM: 14.4%
BMDCs; [8]
  cytotoxicity at 100 µM: 11.4%
BMDCs; [9]
  cytotoxicity at 100 µM: 13.5%
NLRP3 inflammasome; 25 μM, EN11 series table
  Average IL-1β: 0.000 ng/mL
  IL-1β: 0.000 ng/mL
NLRP3 inflammasome; 50 μM, EN11 series table
  Average IL-1β: 0.000 ng/mL
  IL-1β: 0.000 ng/mL
NLRP3 inflammasome; 100 μM
  Average IL-1β: 0.053 ng/mL
  IL-1β: 0.059 ng/mL and 0.052 ng/mL and 0.049 ng/mL
NLRP3 inflammasome; [1]
  Average (% positive control): 0.000 % positive control
NLRP3 inflammasome; [2]
  Average (% positive control): 0.000 % positive control
NLRP3 inflammasome; [3]
  Average (% positive control): 3.621 % positive control

## O=C(NCc1ccccc1)NCc1ccc2ncccc2c1 [EN11-11, 3-benzyl-1-[(quinolin-6-yl)methyl]urea]
BMDCs; [1]
  Average (% positive control): 8.741 % positive control
BMDCs; [2]
  Average (% positive control): 8.257 % positive control
BMDCs; [3]
  Average (% positive control): 10.723 % positive control
BMDCs; [4]
  cytotoxicity at 25 µM: 4.45%
BMDCs; [6]
  cytotoxicity at 50 µM: 4.2%
BMDCs; [8]
  cytotoxicity at 100 µM: 5.91%
BMDCs; [9]
  cytotoxicity at 100 µM: 5.45%
NLRP3 inflammasome; 25 μM, EN11 series table
  Average IL-1β: 0.000 ng/mL
  IL-1β: 0.000 ng/mL
NLRP3 inflammasome; 50 μM, EN11 series table
  Average IL-1β: 0.014 ng/mL
  IL-1β: 0.021 ng/mL and 0.022 ng/mL and 0.000 ng/mL
NLRP3 inflammasome; 100 μM
  Average IL-1β: 0.011 ng/mL
  IL-1β: 0.012 ng/mL and 0.021 ng/mL and 0.000 ng/mL
NLRP3 inflammasome; [1]
  Average (% positive control): 0.000 % positive control
NLRP3 inflammasome; [2]
  Average (% positive control): 0.975 % positive control
NLRP3 inflammasome; [3]
  Average (% positive control): 0.761 % positive control

## O=C(NCCCc1ccccc1)Nc1ccc2ncccc2c1 [EN11-13, 1-(3-phenylpropyl)-3-(quinolin-6-yl)urea]
BMDCs; [1]
  Average (% positive control): 15.011 % positive control
BMDCs; [2]
  Average (% positive control): 20.209 % positive control
BMDCs; [3]
  Average (% positive control): 31.963 % positive control
BMDCs; [4]
  cytotoxicity at 25 µM: 7.63%
BMDCs; [5]
  cytotoxicity at 25 µM: 7.55%
BMDCs; [6]
  cytotoxicity at 50 µM: 10.3%
BMDCs; [7]
  cytotoxicity at 50 µM: 10.4%
BMDCs; [8]
  cytotoxicity at 100 µM: 19.3%
BMDCs; [9]
  cytotoxicity at 100 µM: 16.3%
NLRP3 inflammasome; 25 μM, EN11 series table
  Average IL-1β: 0.011 ng/mL
  IL-1β: 0.000 ng/mL and 0.011 ng/mL and 0.023 ng/mL
NLRP3 inflammasome; 50 μM, EN11 series table
  Average IL-1β: 0.067 ng/mL
  IL-1β: 0.067 ng/mL
NLRP3 inflammasome; 100 μM
  Average IL-1β: 0.297 ng/mL
  IL-1β: 0.243 ng/mL and 0.331 ng/mL and 0.316 ng/mL
NLRP3 inflammasome; [1]
  Average (% positive control): 0.764 % positive control
NLRP3 inflammasome; [2]
  Average (% positive control): 4.560 % positive control
NLRP3 inflammasome; [3]
  Average (% positive control): 20.130 % positive control

## O=C(NCc1ccccc1)Nc1ccc2ncccc2c1 [EN11-16, 1-benzyl-3-(quinolin-6-yl)urea]
BMDCs; [1]
  Average (% positive control): 15.222 % positive control
BMDCs; [2]
  Average (% positive control): 16.245 % positive control
BMDCs; [3]
  Average (% positive control): 24.607 % positive control
BMDCs; [4]
  cytotoxicity at 25 µM: 7.74%
BMDCs; [5]
  cytotoxicity at 25 µM: 7.87%
BMDCs; [6]
  cytotoxicity at 50 µM: 8.26%
BMDCs; [7]
  cytotoxicity at 50 µM: 8.33%
BMDCs; [8]
  cytotoxicity at 100 µM: 14.2%
BMDCs; [9]
  cytotoxicity at 100 µM: 12.5%
NLRP3 inflammasome; 25 μM, EN11 series table
  Average IL-1β: 0.008 ng/mL
  IL-1β: 0.010 ng/mL and 0.014 ng/mL and 0.000 ng/mL
NLRP3 inflammasome; 50 μM, EN11 series table
  Average IL-1β: 0.060 ng/mL
  IL-1β: 0.068 ng/mL and 0.054 ng/mL and 0.058 ng/mL
NLRP3 inflammasome; 100 μM
  Average IL-1β: 0.325 ng/mL
  IL-1β: 0.334 ng/mL and 0.324 ng/mL and 0.315 ng/mL
NLRP3 inflammasome; [1]
  Average (% positive control): 0.555 % positive control
NLRP3 inflammasome; [2]
  Average (% positive control): 4.074 % positive control
NLRP3 inflammasome; [3]
  Average (% positive control): 22.016 % positive control

## O=C(Nc1ccccc1)Nc1ccc2ncccc2n1 [JB002, 1-(1,5-naphthyridin-2-yl)-3-phenylurea]
BMDCs; 20 μM, positive control EN22 20 μM
  Average (% positive control): 13.887 % positive control
BMDCs; 40 μM, positive control EN22 20 μM
  Average (% positive control): 17.760 % positive control
BMDCs; 80 μM, positive control EN22 20 μM
  Average (% positive control): 30.084 % positive control
BMDCs; 20 μM, individual replicate values, read-out: LDH release (% of max.)
  cytotoxicity at 20 µM: 7.72%
BMDCs; 20 μM, read-out: Average LDH release (% of max.)
  cytotoxicity at 20 µM: 7.4%
BMDCs; 40 μM, individual replicate values, read-out: LDH release (% of max.)
  cytotoxicity at 40 µM: 9.38%
BMDCs; 40 μM, read-out: Average LDH release (% of max.)
  cytotoxicity at 40 µM: 9.46%
BMDCs; 80 μM, individual replicate values, read-out: LDH release (% of max.)
  cytotoxicity at 80 µM: 14%
BMDCs; 80 μM, read-out: Average LDH release (% of max.)
  cytotoxicity at 80 µM: 16%
NLRP3 inflammasome; 20 μM
  Average IL-1β: 0.045 ng/mL
  IL-1β: 0.038 ng/mL and 0.050 ng/mL and 0.047 ng/mL
NLRP3 inflammasome; 40 μM
  Average IL-1β: 0.192 ng/mL
  IL-1β: 0.190 ng/mL and 0.197 ng/mL and 0.1902 ng/mL
NLRP3 inflammasome; 80 μM
  Average IL-1β: 0.503 ng/mL
  IL-1β: 0.464 ng/mL and 0.505 ng/mL and 0.540 ng/mL
NLRP3 inflammasome; 20 μM, positive control EN22
  Average (% positive control): 2.292 % positive control
NLRP3 inflammasome; 40 μM, positive control EN22
  Average (% positive control): 9.827 % positive control
NLRP3 inflammasome; 80 μM, positive control EN22
  Average (% positive control): 25.697 % positive control
